According to ChEMBL document CHEMBL1201862, “PubChem BioAssay data set” (2004):
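Results reflect a 48-hour exposure of cells in 96-well plates to compound at five concentrations. The concentration for 50% growth inhibition is given as GI50.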 Active and inactive are the calls of the source. Rule as the data show it: active = GI50 up to about 1.1 µM and inactive = higher.

Columns and labels:
Experiment in all cases: inhibition of tumour cell growth, NCI panel, 48 h
A549 = system: A549
COLO 205 = system: COLO 205
SNB-75 = system: SNB-75
DMS-273 = system: DMS-273
SW-620 = system: SW-620
SK-MEL-28 = system: SK-MEL-28
NCI-H23 = system: NCI-H23
SR = system: SR
KM-20L2 = system: KM-20L2
HCT-116 = system: HCT-116
HOP-92 = system: HOP-92
XF498 = system: XF498
EKVX = system: EKVX
HOP-18 = system: HOP-18
ACHN = system: ACHN
SN12C = system: SN12C
IGROV-1 = system: IGROV-1
SF-539 = system: SF-539
NCI-H460 = system: NCI-H460
SNB-78 = system: SNB-78
K562 = system: K562
A498 = system: A498
CAKI-1 = system: CAKI-1
OVCAR-8 = system: OVCAR-8
U-251 = system: U-251
KM12 = system: KM12
SNB-19 = system: SNB-19
M19-MEL = system: M19-MEL
DMS-114 = system: DMS-114
HCT-15 = system: HCT-15
DLD-1 = system: DLD-1
RXF 393 = system: RXF 393
UO-31 = system: UO-31
786-0 = system: 786-0
HOP-62 = system: HOP-62
UACC-62 = system: UACC-62
SK-MEL-2 = system: SK-MEL-2
OVCAR-3 = system: OVCAR-3
M14 = system: M14
SF-295 = system: SF-295
OVCAR-4 = system: OVCAR-4
HT-29 = system: HT-29
MOLT-4 = system: MOLT-4
RPMI-8226 = system: RPMI-8226
CCRF-CEM = system: CCRF-CEM
HL-60 = system: HL-60
HCC 2998 = system: HCC 2998
UACC-257 = system: UACC-257
LXFL 529 = system: LXFL 529
OVCAR-5 = system: OVCAR-5
TK-10 = system: TK-10
SK-MEL-5 = system: SK-MEL-5
NCI-H226 = system: NCI-H226
SF-268 = system: SF-268
Malme-3M = system: Malme-3M
SK-OV-3 = system: SK-OV-3
NCI-H522 = system: NCI-H522
LOX IMVI = system: LOX IMVI

COC1C(OC(=S)Nc2ccccc2)c2ccccc2N1C(C)=O (stereo not given)
GI50 (A549): 87.7 µM (inactive)
GI50 (COLO 205): > 100 µM (inactive)
GI50 (SNB-75): > 100 µM (inactive)
GI50 (DMS-273): 85.3 µM (inactive)
GI50 (SW-620): 34 µM (inactive)
GI50 (SK-MEL-28): > 100 µM (inactive)
GI50 (NCI-H23): > 100 µM (inactive)
GI50 (SR): 48.6 µM (inactive)
GI50 (KM-20L2): 57.4 µM (inactive)
GI50 (HCT-116): > 100 µM (inactive)
GI50 (HOP-92): 13.7 µM (inactive)
GI50 (XF498): > 100 µM (inactive)
GI50 (EKVX): > 100 µM (inactive)
GI50 (HOP-18): > 100 µM (inactive)
GI50 (ACHN): 29 µM (inactive)
GI50 (SN12C): > 100 µM (inactive)
GI50 (IGROV-1): 80.4 µM (inactive)
GI50 (SF-539): > 100 µM (inactive)
GI50 (NCI-H460): > 100 µM (inactive)
GI50 (SNB-78): > 100 µM (inactive)
GI50 (K562): > 100 µM (inactive)
GI50 (A498): > 100 µM (inactive)
GI50 (CAKI-1): 85.1 µM (inactive)
GI50 (OVCAR-8): > 100 µM (inactive)
GI50 (U-251): > 100 µM (inactive)
GI50 (KM12): 29.9 µM (inactive)
GI50 (SNB-19): > 100 µM (inactive)
GI50 (M19-MEL): > 100 µM (inactive)
GI50 (DMS-114): 60.7 µM (inactive)
GI50 (HCT-15): 52.1 µM
GI50 (DLD-1): 90.2 µM (inactive)
GI50 (RXF 393): 26.5 µM (inactive)
GI50 (UO-31): 98.4 µM (inactive)
GI50 (786-0): > 100 µM (inactive)
GI50 (HOP-62): > 100 µM (inactive)
GI50 (UACC-62): 31.4 µM (inactive)
GI50 (SK-MEL-2): 68.9 µM (inactive)
GI50 (OVCAR-3): > 100 µM (inactive)
GI50 (M14): 89.3 µM (inactive)
GI50 (SF-295): 28.4 µM (inactive)
GI50 (OVCAR-4): 75.9 µM (inactive)
GI50 (HT-29): 99.1 µM (inactive)
GI50 (MOLT-4): 44 µM (inactive)
GI50 (RPMI-8226): 50.4 µM (inactive)
GI50 (CCRF-CEM): 64.4 µM (inactive)
GI50 (HL-60): 72.8 µM (inactive)
GI50 (HCC 2998): > 100 µM (inactive)
GI50 (UACC-257): > 100 µM (inactive)
GI50 (LXFL 529): 44.4 µM (inactive)

CN(C)CCOc1cccc2c1C(=O)c1ccccc1C2=O
GI50 (A549): 13.7 µM (inactive)
GI50 (COLO 205): 4.38 µM (inactive)
GI50 (SNB-75): 14.9 µM (inactive)
GI50 (DMS-273): 10.1 µM (inactive)
GI50 (SW-620): 8.32 µM (inactive)
GI50 (SK-MEL-28): 15.3 µM (inactive)
GI50 (NCI-H23): 11.8 µM (inactive)
GI50 (OVCAR-5): 16.5 µM (inactive)
GI50 (KM-20L2): 13.9 µM (inactive)
GI50 (TK-10): 17.3 µM (inactive)
GI50 (HCT-116): 4.58 µM (inactive)
GI50 (HOP-92): 11.8 µM (inactive)
GI50 (XF498): 18.7 µM (inactive)
GI50 (EKVX): 18.4 µM (inactive)
GI50 (HOP-18): 16 µM (inactive)
GI50 (ACHN): 12 µM (inactive)
GI50 (SN12C): 9.06 µM (inactive)
GI50 (IGROV-1): 16.5 µM (inactive)
GI50 (SF-539): 10.4 µM (inactive)
GI50 (NCI-H460): 5.36 µM (inactive)
GI50 (SNB-78): 13.6 µM (inactive)
GI50 (K562): 11.1 µM (inactive)
GI50 (A498): 18.1 µM (inactive)
GI50 (CAKI-1): 14.7 µM (inactive)
GI50 (OVCAR-8): 9.48 µM (inactive)
GI50 (U-251): 17.4 µM (inactive)
GI50 (SK-MEL-5): 12.8 µM (inactive)
GI50 (NCI-H226): 9.95 µM (inactive)
GI50 (SF-268): 9.79 µM (inactive)
GI50 (KM12): 10.8 µM (inactive)
GI50 (SNB-19): 18.2 µM (inactive)
GI50 (M19-MEL): 5.65 µM (inactive)
GI50 (Malme-3M): 13.6 µM (inactive)
GI50 (DMS-114): 10.4 µM (inactive)
GI50 (HCT-15): 12.2 µM
GI50 (DLD-1): 8.34 µM (inactive)
GI50 (SK-OV-3): 20.4 µM (inactive)
GI50 (NCI-H522): 6.52 µM (inactive)
GI50 (RXF 393): 13.8 µM (inactive)
GI50 (UO-31): 4.52 µM (inactive)
GI50 (786-0): 17.6 µM (inactive)
GI50 (HOP-62): 13.6 µM (inactive)
GI50 (UACC-62): 16.3 µM (inactive)
GI50 (SK-MEL-2): 14.2 µM (inactive)
GI50 (OVCAR-3): 17.9 µM (inactive)
GI50 (M14): 13.5 µM (inactive)
GI50 (SF-295): 15.1 µM (inactive)
GI50 (OVCAR-4): 6.14 µM (inactive)
GI50 (LOX IMVI): 5.75 µM (inactive)
GI50 (HT-29): 6.37 µM (inactive)
GI50 (MOLT-4): 3.45 µM (inactive)
GI50 (CCRF-CEM): 11.4 µM (inactive)
GI50 (HL-60): 12.1 µM (inactive)
GI50 (HCC 2998): 13.9 µM (inactive)
GI50 (UACC-257): 13.1 µM (inactive)
GI50 (LXFL 529): 12.1 µM (inactive)
